How the values were obtained:
Parameters in all cases: scale not given: the % may be the effect or the level left
[1] = target: T1, Bone morphogenetic protein receptor type-2 (Homo sapiens) (UniProt Q13873); experiment: Inhibition of human BMPR2 assessed as enzyme activity at 1 uM using myelin basic protein as substrate preincubated for 20 mins followed by [gamma-33P]-ATP addition and measured after 120 mins by radiometric Hot-SpotSM Kinase assay relative to control
T1 sequence (whole entry): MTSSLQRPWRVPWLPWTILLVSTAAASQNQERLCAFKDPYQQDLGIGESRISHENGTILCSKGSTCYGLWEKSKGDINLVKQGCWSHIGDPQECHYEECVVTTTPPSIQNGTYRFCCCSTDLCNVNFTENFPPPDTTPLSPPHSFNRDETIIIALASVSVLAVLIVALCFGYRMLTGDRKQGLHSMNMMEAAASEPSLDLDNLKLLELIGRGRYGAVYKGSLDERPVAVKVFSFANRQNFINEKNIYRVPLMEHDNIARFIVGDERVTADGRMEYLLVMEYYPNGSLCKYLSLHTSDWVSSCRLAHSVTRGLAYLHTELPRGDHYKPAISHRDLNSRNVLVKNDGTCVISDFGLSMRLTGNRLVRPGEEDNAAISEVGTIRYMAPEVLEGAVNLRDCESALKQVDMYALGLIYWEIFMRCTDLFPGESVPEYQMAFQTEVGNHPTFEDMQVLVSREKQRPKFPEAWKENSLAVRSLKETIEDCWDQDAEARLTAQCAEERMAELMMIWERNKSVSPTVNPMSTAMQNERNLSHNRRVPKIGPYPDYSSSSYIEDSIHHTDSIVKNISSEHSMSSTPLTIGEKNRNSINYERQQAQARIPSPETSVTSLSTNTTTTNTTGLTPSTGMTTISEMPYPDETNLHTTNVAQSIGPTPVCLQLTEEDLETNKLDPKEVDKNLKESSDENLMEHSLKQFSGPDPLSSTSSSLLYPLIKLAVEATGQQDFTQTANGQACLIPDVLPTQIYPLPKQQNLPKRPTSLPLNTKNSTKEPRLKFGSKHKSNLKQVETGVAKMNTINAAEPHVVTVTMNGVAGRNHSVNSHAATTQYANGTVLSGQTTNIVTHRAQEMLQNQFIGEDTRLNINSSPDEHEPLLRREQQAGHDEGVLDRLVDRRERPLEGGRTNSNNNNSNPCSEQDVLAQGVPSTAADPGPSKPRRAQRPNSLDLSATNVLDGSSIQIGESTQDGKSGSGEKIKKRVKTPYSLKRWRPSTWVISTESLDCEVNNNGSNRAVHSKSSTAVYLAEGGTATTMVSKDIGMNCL

[2] = target: T2, Ephrin type-B receptor 2 (Homo sapiens) (UniProt P29323); experiment: Inhibition of human EPHB2 assessed as enzyme activity at 1 uM using poly[Glu:Tyr] (4:1) as substrate preincubated for 20 mins followed by [gamma-33P]-ATP addition and measured after 120 mins by radiometric Hot-SpotSM Kinase assay relative to control
T2 sequence (whole entry): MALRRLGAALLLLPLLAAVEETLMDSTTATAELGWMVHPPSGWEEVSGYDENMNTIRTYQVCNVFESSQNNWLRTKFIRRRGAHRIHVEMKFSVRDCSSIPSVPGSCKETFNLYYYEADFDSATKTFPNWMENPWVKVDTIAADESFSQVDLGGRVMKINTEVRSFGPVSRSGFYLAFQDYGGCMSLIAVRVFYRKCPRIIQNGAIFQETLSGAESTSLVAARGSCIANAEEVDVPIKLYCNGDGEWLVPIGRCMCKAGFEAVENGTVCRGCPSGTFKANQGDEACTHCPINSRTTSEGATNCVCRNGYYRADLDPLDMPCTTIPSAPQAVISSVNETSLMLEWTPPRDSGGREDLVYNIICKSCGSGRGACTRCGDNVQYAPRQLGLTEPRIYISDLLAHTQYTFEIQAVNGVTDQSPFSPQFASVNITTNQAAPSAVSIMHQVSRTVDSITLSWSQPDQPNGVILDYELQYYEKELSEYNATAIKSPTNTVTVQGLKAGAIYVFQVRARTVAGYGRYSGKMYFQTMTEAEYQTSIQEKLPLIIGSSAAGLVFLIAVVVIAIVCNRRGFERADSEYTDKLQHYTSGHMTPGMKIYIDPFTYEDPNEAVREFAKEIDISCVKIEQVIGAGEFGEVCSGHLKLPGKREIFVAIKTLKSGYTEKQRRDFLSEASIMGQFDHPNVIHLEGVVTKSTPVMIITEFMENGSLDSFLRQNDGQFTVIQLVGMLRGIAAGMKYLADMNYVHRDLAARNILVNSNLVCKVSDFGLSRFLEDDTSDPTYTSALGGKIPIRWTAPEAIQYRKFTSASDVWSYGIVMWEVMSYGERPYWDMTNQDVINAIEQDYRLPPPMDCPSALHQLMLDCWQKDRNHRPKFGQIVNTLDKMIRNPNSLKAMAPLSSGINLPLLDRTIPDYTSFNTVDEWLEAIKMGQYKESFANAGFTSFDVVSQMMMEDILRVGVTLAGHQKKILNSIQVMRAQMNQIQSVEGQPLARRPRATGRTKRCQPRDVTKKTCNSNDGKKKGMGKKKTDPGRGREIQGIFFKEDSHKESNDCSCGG

[3] = target: Ribosomal protein S6 kinase alpha-1 (Homo sapiens) (UniProt Q15418); experiment: Inhibition of human RSK1 assessed as enzyme activity at 1 uM using KKLNRTLSVA as substrate preincubated for 20 mins followed by [gamma-33P]-ATP addition and measured after 120 mins by radiometric Hot-SpotSM Kinase assay relative to control
Ribosomal protein S6 kinase alpha-1 (Homo sapiens), sequence (Q15418 whole entry): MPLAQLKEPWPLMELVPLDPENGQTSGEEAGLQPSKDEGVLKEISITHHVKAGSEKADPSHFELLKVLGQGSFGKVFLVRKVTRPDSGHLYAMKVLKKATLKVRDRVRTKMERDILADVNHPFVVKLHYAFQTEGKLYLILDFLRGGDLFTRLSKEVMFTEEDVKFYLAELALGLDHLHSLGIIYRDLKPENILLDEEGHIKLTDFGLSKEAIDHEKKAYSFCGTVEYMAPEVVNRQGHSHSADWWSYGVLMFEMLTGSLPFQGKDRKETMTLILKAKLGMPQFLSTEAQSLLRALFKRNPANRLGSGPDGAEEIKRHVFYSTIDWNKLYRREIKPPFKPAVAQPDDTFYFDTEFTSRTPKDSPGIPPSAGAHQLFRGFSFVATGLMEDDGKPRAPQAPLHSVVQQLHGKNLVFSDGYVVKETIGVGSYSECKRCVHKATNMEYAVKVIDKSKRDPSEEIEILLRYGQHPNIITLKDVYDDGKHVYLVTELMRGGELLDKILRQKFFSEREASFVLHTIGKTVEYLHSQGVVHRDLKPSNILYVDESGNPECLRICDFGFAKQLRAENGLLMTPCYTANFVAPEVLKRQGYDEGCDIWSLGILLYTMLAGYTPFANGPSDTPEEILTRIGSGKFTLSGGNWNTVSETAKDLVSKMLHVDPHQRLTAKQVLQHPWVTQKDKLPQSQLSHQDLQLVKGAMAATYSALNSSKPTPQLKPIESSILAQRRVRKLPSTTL

[4] = target: CDK2/Cyclin O (Homo sapiens) (UniProt P24941+P22674); experiment: Inhibition of human CDK2/cyclin O assessed as enzyme activity at 1 uM using Histone H1 as substrate preincubated for 20 mins followed by [gamma-33P]-ATP addition and measured after 120 mins by radiometric Hot-SpotSM Kinase assay relative to control; format: protein-complex assay
[5] = target: Tyrosine-protein kinase Fer (Homo sapiens) (UniProt P16591); experiment: Inhibition of human FER assessed as enzyme activity at 1 uM using poly[Glu:Tyr] (4:1) as substrate preincubated for 20 mins followed by [gamma-33P]-ATP addition and measured after 120 mins by radiometric Hot-SpotSM Kinase assay relative to control
Tyrosine-protein kinase Fer (Homo sapiens), sequence (P16591 whole entry, looked up): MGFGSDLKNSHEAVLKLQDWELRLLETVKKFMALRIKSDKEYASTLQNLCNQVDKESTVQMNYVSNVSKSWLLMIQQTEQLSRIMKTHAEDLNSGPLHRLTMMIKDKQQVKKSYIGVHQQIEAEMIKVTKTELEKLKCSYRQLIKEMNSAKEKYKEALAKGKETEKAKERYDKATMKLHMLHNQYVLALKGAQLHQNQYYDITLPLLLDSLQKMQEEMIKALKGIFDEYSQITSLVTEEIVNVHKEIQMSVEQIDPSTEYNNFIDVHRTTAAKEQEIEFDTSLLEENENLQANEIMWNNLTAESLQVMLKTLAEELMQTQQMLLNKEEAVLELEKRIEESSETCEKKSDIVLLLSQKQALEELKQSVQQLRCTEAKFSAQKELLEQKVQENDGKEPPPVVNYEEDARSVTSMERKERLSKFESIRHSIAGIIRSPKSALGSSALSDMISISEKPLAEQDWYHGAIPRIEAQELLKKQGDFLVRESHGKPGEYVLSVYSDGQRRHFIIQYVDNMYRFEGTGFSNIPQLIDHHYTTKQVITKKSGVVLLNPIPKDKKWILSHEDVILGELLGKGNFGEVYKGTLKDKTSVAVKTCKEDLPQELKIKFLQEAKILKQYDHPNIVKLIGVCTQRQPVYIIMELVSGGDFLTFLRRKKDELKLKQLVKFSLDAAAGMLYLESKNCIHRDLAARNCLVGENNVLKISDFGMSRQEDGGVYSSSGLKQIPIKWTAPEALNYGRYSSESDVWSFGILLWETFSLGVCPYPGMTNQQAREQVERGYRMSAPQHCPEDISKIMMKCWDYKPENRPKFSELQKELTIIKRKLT

[6] = target: STE20/SPS1-related proline-alanine-rich protein kinase (Homo sapiens) (UniProt Q9UEW8); experiment: Inhibition of human STK39 assessed as enzyme activity at 1 uM using myelin basic protein as substrate preincubated for 20 mins followed by [gamma-33P]-ATP addition and measured after 120 mins by radiometric Hot-SpotSM Kinase assay relative to control

SMILES | Activity [1] [%] | Activity [2] [%] | Activity [3] [%] | Activity [4] [%] | Activity [5] [%] | Activity [6] [%]
CC[C@H](Nc1ncnc2[nH]cnc12)c1nc2cccc(F)c2c(=O)n1-c1ccccc1 | 107 | 91.9 | 101 | 92.8 | 97.2 | 87.1
C[C@H](Nc1ncnc2nc[nH]c12)c1cc2cccc(Cl)c2c(=O)n1-c1ccccc1 | 103 | 92 | 100 | 90.7 | 91.7 | 78.1
CC(C)Oc1ccc(-c2nn([C@@H](C)c3oc4ccc(F)cc4c(=O)c3-c3cccc(F)c3)c3ncnc(N)c23)cc1F [UMBRALISIB] | 107 | 95.9 | 104 | 92.9 | 94.5 | 85.4

— ChEMBL document CHEMBL5715954, “Silencing c-Myc translation as a therapeutic strategy through targeting PI3Kδ and CK1ε in hematological malignancies” (Blood, 2017)
